Measurements reported in patent publication US5428020A, “Cysteine (NPYS)-containing peptides and use thereof for inhibiting platelet aggregation” (Matsueda; Rei, priority 1994, dated 1995).
* marks the point of attachment. Npys = O=[N+]([O-])c1cccnc1S*

Assays:
[1] = system: calpain; test: Calpain inhibition, fluorogenic substrate succinyl-Leu-Tyr-amino-4-methylcumarin; assay type: biochemical; conditions: 90 mM calpain; 1 mM substrate; 25° C.; pH 7.5; 5 mM CaCl2; read-out: Calpain Inhibitory Potency IC50
Method: 77, 1565 (1986). A calpain preparation (5~10 μl) was placed on a floating filter membrane (Marusyk et al., Anal. Biochem. 105, 403 (1980)) (Millipore type VMWP) over a buffer containing 50 mM Tris/HCl, pH 7.5 and 2.5 mM EDTA for 45-60 minutes, carefully removed and used for the following inhibition study. Aliquots (25 μl) of the enzyme (calpain) and buffer or synthetic peptide were added to a cuvette at 25° C. containing 1 mM succinyl-Leu-Tyr-amino-4-methylcumarin as the substrate in a buffer consisting of 60 mM Tris/HCl, pH 7.5, 2.5% DMSO and 5 mM CaCl2. The rate of substrate hydrolysis was continuously recorded on a Perkin-Elmer LS-5 fluorescence spectrophotometer connected to a R100 chart recorder. […] The IC50 was calculated from the dose-dependent curve for each inhibitor. The IC50 corresponds to that concentration of inhibitory peptide that produced 50% inhibition of calpain activity. In all cases, […] was utilized.

[2] = system: human platelets; test: Inhibition of agonist-induced aggregation of washed human platelets (aggregometer); assay type: cell-based; design: key to Inhibition of platelet aggregation, PMA / Inhibition of platelet aggregation, Thrombin / Inhibition of platelet aggregation, Plasmin / Inhibition of platelet aggregation, ADP / Inhibition of platelet aggregation, Collagen / Inhibition of platelet aggregation, U46619 / Inhibition of platelet aggregation, A23187: "+" indicates inhibition of platelet aggregation; "-" indicates the absence of inhibition of platelet aggregation; "partial" indicates a partial inhibition of platelet aggregation; conditions: for Inhibition of platelet aggregation, A23187: agonist A23187 2.5 uM; for Inhibition of platelet aggregation, A23187 / Inhibition of platelet aggregation, ADP / Inhibition of platelet aggregation, PMA / Inhibition of platelet aggregation, U46619 / Inhibition of platelet aggregation, Collagen / Inhibition of platelet aggregation, Plasmin / Inhibition of platelet aggregation, Thrombin: inhibitor peptide 0.8 nm, 37° C.; for Inhibition of platelet aggregation, ADP: agonist ADP 20 uM; for Inhibition of platelet aggregation, PMA: agonist PMA 0.016 uM; for Inhibition of platelet aggregation, U46619: agonist U46619 1 uM; for Inhibition of platelet aggregation, Collagen: agonist collagen 4 ug/ml; for Inhibition of platelet aggregation, Plasmin: agonist plasmin 0.025 uM; for Inhibition of platelet aggregation, Thrombin: agonist thrombin 0.02 uM
Method: Platelet-rich plasma was prepared by differential centrifugation (120×g, 30 min, 23° C.) of fresh whole human blood drawn into acid/citrate/dextrose (citric acid 0.079 M, sodium citrate, 0.085 M and dextrose 0.180 M) in a ratio of 1 ml of anticoagulant solution per 9 ml of blood. The platelets were washed and their suspensions prepared by a modification of the method of Mustard, et al., Brit. J. Haemat. 22, 193-204 (1972). The modifications included incubation of platelet-rich plasma with prostaglandin E1, hirudin and apyrase and two successive washes of the platelets with Tyrode-albumin buffer (without Ca^++) containing hirudin and apyrase, and apyrase alone. Platelet aggregation in the presence of each agonist and inhibitor peptide (0.8 nm) was performed at 37° C. under constant stirring (1100 rpm) conditions in a chronolog (Lumi) aggregometer. The total volume of the incubation mixture in the sample cuvette was 500 μl and the platelet concentration was adjusted to 5×10^8 /ml. The reference cuvette contained the suspension buffer. Platelet aggregation was initiated by the addition of the agonist to the sample cuvette. The data is indicated in the following table wherein "+" indicates inhibition of platelet aggregation, "-" indicates the absence of inhibition of platelet aggregation, and "partial" indicates a partial inhibition of platelet aggregation.

[3] = molecular target: T1, thrombin (Homo sapiens, UniProt P00734); test: Fibrinogenolytic activity of thrombin; assay type: biochemical
[4] = molecular target: T1, thrombin; test: Amidolytic activity of thrombin; assay type: biochemical
[5] = system: platelets; test: Platelet shape change induced by thrombin and plasmin; assay type: cell-based, human
[6] = system: aggregen; test: Thrombin- and plasmin-induced cleavage of labeled aggregen in intact radiolabeled platelets; assay type: cell-based, human
[7] = molecular target: plasmin (Homo sapiens, UniProt P00747); test: Amidolytic activity of plasmin; assay type: biochemical
Chain of plasmin (P00747 581-810 limits assumed, species assumed): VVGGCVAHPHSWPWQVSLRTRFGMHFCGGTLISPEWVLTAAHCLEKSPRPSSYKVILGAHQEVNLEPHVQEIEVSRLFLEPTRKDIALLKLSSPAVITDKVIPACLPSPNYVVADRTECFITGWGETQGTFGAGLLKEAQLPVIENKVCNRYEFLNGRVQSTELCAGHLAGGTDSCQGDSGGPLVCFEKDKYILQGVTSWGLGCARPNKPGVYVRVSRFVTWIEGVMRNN
Chain of plasmin (P00747 97-580 partner limits assumed, species assumed): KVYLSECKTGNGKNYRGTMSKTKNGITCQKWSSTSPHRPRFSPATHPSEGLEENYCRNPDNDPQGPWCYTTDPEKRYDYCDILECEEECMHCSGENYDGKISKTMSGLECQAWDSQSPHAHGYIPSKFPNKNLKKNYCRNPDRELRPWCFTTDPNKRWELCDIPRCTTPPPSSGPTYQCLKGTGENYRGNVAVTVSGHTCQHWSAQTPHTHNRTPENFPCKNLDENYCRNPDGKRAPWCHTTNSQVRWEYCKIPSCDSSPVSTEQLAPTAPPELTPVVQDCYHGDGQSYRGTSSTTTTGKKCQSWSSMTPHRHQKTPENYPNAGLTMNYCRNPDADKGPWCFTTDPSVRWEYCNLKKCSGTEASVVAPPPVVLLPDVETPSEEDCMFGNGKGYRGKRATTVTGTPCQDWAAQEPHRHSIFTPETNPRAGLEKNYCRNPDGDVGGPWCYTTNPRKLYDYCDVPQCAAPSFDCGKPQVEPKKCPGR

[8] = system: platelets; test: Platelet cAMP levels; assay type: cell-based, human
[9] = molecular target: T2, papain (Carica papaya, UniProt P00784); conditions: Teno et al., Int. J. Peptide Protein Res. 30, 93-98 (1987); cited from earlier work
T2 sequence (P00784 134-345): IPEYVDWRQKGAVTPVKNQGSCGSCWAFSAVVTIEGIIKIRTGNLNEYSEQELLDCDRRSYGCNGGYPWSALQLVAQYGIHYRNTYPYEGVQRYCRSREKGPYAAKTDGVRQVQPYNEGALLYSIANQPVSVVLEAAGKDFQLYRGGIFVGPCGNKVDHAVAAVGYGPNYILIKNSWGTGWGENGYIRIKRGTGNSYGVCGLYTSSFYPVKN

Substance | IC50 [1] | Inhibition of platelet aggregation, A23187 [2] | Inhibition of platelet aggregation, ADP [2] | Inhibition of platelet aggregation, PMA [2] | Inhibition of platelet aggregation, U46619 [2] | Inhibition of platelet aggregation, Collagen [2] | Inhibition of platelet aggregation, Plasmin [2] | Inhibition of platelet aggregation, Thrombin [2] | inhibition of fibrinogenolytic activity of thrombin [3] | inhibition of amidolytic activity of thrombin [4] | effect on platelet shape change introduced by thrombin and plasmin [5] | thrombin- and plasmin induced cleavage of [^3 H]-5'-p-fluorosulfonylbenzoyl adenosine-labeled aggregen [6] | aggregation induced by any of the other agonists tested ([2]; agonists other than thrombin and plasmin) | inhibition of amidolytic activity of plasmin [7] | platelet-cAMP levels [8] | activity in inhibiting the thiol protease papain [9]
TFA.H-Phe-Gln-Val-Val-Cys(NpyS)-Gly-NH2 (H-FQVVC(Npys)G-NH2; also: TFA salt) [Example 1] | 4.1 µM | - | - | - | - | - | + | + | did not inhibit | did not inhibit | no effect | completely inhibited | did not inhibit | did not inhibit | did not raise | 
TFA.H-Ala-Gln-Val-Val-CYs (NpyS)-GlY-NH2 (H-AQVV-{Cys(NpyS)-Gly-NH2}; also: TFA salt) [Example 4] | 16 µM | partial | + | + | + | + | + | + |  |  |  |  |  |  |  | 
Gln-Val-Val-Ala-Gly (QVVAG; printed: Gln-Val-Val-Ala-Gly) [QVAAG, pentapeptide of kininogen D2 and D3 repeats] |  |  |  |  |  |  |  |  |  |  |  |  |  |  |  | weak activity

Now from value to substance, other results behind:

IC50 [1] | Substance | Inhibition of platelet aggregation, A23187 [2] | Inhibition of platelet aggregation, ADP [2] | Inhibition of platelet aggregation, PMA [2] | Inhibition of platelet aggregation, U46619 [2] | Inhibition of platelet aggregation, Collagen [2] | Inhibition of platelet aggregation, Plasmin [2] | Inhibition of platelet aggregation, Thrombin [2] | inhibition of fibrinogenolytic activity of thrombin [3] | inhibition of amidolytic activity of thrombin [4] | effect on platelet shape change introduced by thrombin and plasmin [5] | thrombin- and plasmin induced cleavage of [^3 H]-5'-p-fluorosulfonylbenzoyl adenosine-labeled aggregen [6] | aggregation induced by any of the other agonists tested ([2]; agonists other than thrombin and plasmin) | inhibition of amidolytic activity of plasmin [7] | platelet-cAMP levels [8] | activity in inhibiting the thiol protease papain [9]
5.6 µM | TFA.H-Phe-Gln-Leu-Val-Cys(NpyS)-Gly-NH2 (H-FQLVC(Npys)G-NH2; also: TFA salt) [Example 2] | partial | partial | partial | partial | partial | + | + |  |  |  |  |  |  |  | 
36 µM | TFA.H-Gln-Val-Val-Cys(NpyS)-Gly-NH2 (H-QVVC(Npys)G-NH2; also: TFA salt) [Example 5] | partial | + | + | + | + | + | + |  |  |  |  |  |  |  | 
55 µM | TFA.H-Arg-Gln-Val-Val-Cys(NPYS)-GlY-NH2 (H-RQVVC(Npys)G-NH2; also: TFA salt) [Example 3] | partial | + | + | + | + | + | + |  |  |  |  |  |  |  | 
